Consider 26 compounds from patent US20100029657A1, “Bridged, Bicyclic Heterocyclic or Spiro Bicyclic Heterocyclic Derivatives of Pyrazolo[1, 5-A]Pyrimidines, Methods for Preparation and Uses Thereof” (Wyeth, priority 2008, published 2010).

SMILES strings stand for the structures.

T1 sequence (P15056 whole entry): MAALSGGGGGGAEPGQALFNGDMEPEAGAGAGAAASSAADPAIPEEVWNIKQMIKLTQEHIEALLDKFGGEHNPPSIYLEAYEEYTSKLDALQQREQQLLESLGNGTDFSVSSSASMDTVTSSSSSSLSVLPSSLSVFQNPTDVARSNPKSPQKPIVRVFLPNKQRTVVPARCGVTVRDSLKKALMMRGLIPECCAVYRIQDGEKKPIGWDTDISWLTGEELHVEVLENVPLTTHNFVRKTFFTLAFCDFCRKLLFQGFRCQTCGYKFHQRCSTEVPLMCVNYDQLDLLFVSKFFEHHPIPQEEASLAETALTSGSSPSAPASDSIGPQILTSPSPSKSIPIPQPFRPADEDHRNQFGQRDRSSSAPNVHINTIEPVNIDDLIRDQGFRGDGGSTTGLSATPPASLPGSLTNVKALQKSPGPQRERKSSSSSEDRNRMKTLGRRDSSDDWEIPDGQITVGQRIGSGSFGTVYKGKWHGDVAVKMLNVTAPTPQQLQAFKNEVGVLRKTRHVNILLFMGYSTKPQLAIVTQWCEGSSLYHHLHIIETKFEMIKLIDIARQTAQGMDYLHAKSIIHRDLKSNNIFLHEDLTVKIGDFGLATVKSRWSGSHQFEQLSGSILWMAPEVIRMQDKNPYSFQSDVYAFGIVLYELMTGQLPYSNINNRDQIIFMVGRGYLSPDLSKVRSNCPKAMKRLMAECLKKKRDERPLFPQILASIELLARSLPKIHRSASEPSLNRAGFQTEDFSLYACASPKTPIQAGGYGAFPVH

This assay has as its target T1, Flag/GST-tagged recombinant human B-Raf (Homo sapiens, UniProt P15056).
T1 construct: Flag; GST; made in house; host or cells: Sf9 insect cells (B-Raf); E. coli (MEK1-GST)
The experiment in a line: B-Raf kinase assay (phosphorylation of GST-MEK1, phospho-MEK1 antibody/Europium detection). The assay is classed as biochemical. Particulars: B-Raf IC50 Data for compounds of Formula A; read-out: Mean IC50. As for the experimental part:
B-Raf1 Kinase Assay Procedure: B-Raf-1 is used to phosphorylate GST-MEK1.
• 1. Assay Dilution Buffer (ADB): 20 mM MOPS, pH 7.2, 25 mM β-glycerol phosphate, 5 mM EGTA, 1 mM sodium orthovanadate, 1 mM dithiothreitol, 0.01% Triton X-100. • 2. Magnesium/ATP Cocktail: ADB solution (minus Triton X-100) plus 200 μM cold ATP and 40 mM magnesium chloride. • 4. Active Kinase: Active B-Raf: Used at 0.2 nM per assay point. • 5. […] TBST—Tris (50 mM, pH 7.5), NaCl (150 mM), Tween-20 (0.05%) • 7. Anti-GST Ab (GE) • 8. Anti pMEK Ab (Upstate) • 9. Anti-rabbit Ab/Europium conjugate (Wallac).
B-Raf Assay Procedure: • 1. Added 25 μL of ADB containing B-Raf and Mek per assay (i.e. per well of a 96 well plate) • 2. Added 25 μL of 0.2 mM ATP and 40 mM magnesium chloride in Magnesuium/ATP Cocktail. • 3. Incubated for 45 minutes at RT with occasional shaking. • 4. Transferred this mixture to an anti-GST Ab coated 96 well plate (Nunc Immunosorb plates coated o/n with a-GST. Plate freshly washed 3×with TBS-T before use. • 5. Incubated o/n at […] in cold room. • 6. Washed 3× with TBST, ed Anti-Phospho MEK1 (1:1000, dilution depended upon lot) • 7. Incubated for 60 minutes at RT in a shaking incubator • 8. Washed 3× with TBST, add Anti-rabbit Ab/Europium conjugate (Wallac) (1:500, dilution depended upon lot) • 9. Incubated for 60 minutes at RT on a platform shaker. • 10. Washed plate 3× with TBS-T • 11. Added 100 μL of Wallac Delfia Enhancement Solution and agitated for 10 minutes. • 12. Read plates in Wallac Victor model Plate Reader. • 13.
The % inhibition was determined for each compound concentration.
A word on the IC50: it is the point on the concentration scale where inhibition reaches its midpoint. In the case of `c1cc(-c2c(-c3ccncc3)nn3c2nccc3[C@H]2CC[C@@H](N3C4CCC3COC4)CC2)c2cn[nH]c2c1` (relative stereo) [Example 150, 3-(1H-indazol-4-yl)-7-[cis-4-(3-oxa-8-azabicyclo[3.2.1]oct-8-yl)cyclohexyl]-2-pyridin-4-ylpyrazolo[1,5-a]pyrimidine], the IC50 came out at 39.9 nM.
For the compound `c1cc(-c2c(-c3ccncc3)nn3c2nccc3[C@H]2CC[C@H](N3C4CCC3COC4)CC2)c2cn[nH]c2c1` (relative stereo) [Example 151, 3-(1H-indazol-4-yl)-7-[trans-4-(3-oxa-8-azabicyclo[3.2.1]oct-8-yl)cyclohexyl]-2-pyridin-4-ylpyrazolo[1,5-a]pyrimidine], the IC50 is 6.4 nM.
As for `c1cc(-c2c(-c3ccncc3)nn3c2nccc3[C@H]2CC[C@@H](N3CC4CCC(C3)O4)CC2)c2cn[nH]c2c1` (relative stereo) [Example 152, 3-(1H-indazol-4-yl)-7-[cis-4-(8-oxa-3-azabicyclo[3.2.1]oct-3-yl)cyclohexyl]-2-pyridin-4-ylpyrazolo[1,5-a]pyrimidine], the IC50 was 6.4 nM.
As for `c1cc(-c2c(-c3ccncc3)nn3c2nccc3[C@H]2CC[C@H](N3CC4CCC(C3)O4)CC2)c2cn[nH]c2c1` (relative stereo) [Example 153, 3-(1H-indazol-4-yl)-7-[trans-4-(8-oxa-3-azabicyclo[3.2.1]oct-3-yl)cyclohexyl]-2-pyridin-4-ylpyrazolo[1,5-a]pyrimidine], the IC50 was 3.7 nM.
Under `Fc1ccc(-c2c(-c3ccncc3)nn3c2nccc3[C@H]2CC[C@@H](N3CC4CCC(C3)O4)CC2)c2cn[nH]c12` (relative stereo) [Example 179, 3-(7-fluoro-1H-indazol-4-yl)-7-[cis-4-(8-oxa-3-azabicyclo[3.2.1]oct-3-yl)cyclohexyl]-2-pyridin-4-ylpyrazolo[1,5-a]pyrimidine] stands 8.6 nM.
Under `Fc1ccc(-c2c(-c3ccncc3)nn3c2nccc3[C@H]2CC[C@H](N3CC4CCC(C3)O4)CC2)c2cn[nH]c12` (relative stereo) [Example 180, 3-(7-fluoro-1H-indazol-4-yl)-7-[trans-4-(8-oxa-3-azabicyclo[3.2.1]oct-3-yl)cyclohexyl]-2-pyridin-4-ylpyrazolo[1,5-a]pyrimidine] stands 1.8 nM; under `Fc1ccc(-c2c(-c3ccncc3)nn3c2nccc3[C@H]2CC[C@@H](N3C4CCC3COC4)CC2)c2cn[nH]c12` (relative stereo) [Example 181, 3-(7-fluoro-1H-indazol-4-yl)-7-[cis-4-(3-oxa-8-azabicyclo[3.2.1]oct-8-yl)cyclohexyl]-2-pyridin-4-ylpyrazolo[1,5-a]pyrimidine], 2.1 nM.
Under `Fc1ccc(-c2c(-c3ccncc3)nn3c2nccc3[C@H]2CC[C@H](N3C4CCC3COC4)CC2)c2cn[nH]c12` (relative stereo) [Example 182, 3-(7-fluoro-1H-indazol-4-yl)-7-[trans-4-(3-oxa-8-azabicyclo[3.2.1]oct-8-yl)cyclohexyl]-2-pyridin-4-ylpyrazolo[1,5-a]pyrimidine] stands 1.3 nM.
Turning to `Oc1cccc(-c2c(-c3ccncc3)nn3c(-c4ccc(NCC56CCN(CC5)CC6)nc4)ccnc23)c1` [Example 1, 3-(7-{6-[(1-Azabicyclo[2.2.2]oct-4-ylmethyl)amino]pyridin-3-yl}-2-pyridin-4-ylpyrazolo[1,5-a]pyrimidin-3-yl)phenol], the IC50 was found to be 2 nM.
For `Oc1cccc(-c2c(-c3ccncc3)nn3c(-c4ccc(N[C@@H]5CN6CCC5CC6)nc4)ccnc23)c1` [Example 2, 3-(7-{6-[(3S)-1-Azabicyclo[2.2.2]oct-3-ylamino]pyridin-3-yl}-2-pyridin-4-ylpyrazolo[1,5-a]pyrimidin-3-yl)phenol] the value was 2 nM; for `Oc1cccc(-c2c(-c3ccncc3)nn3c(-c4ccc(N[C@H]5CN6CCC5CC6)nc4)ccnc23)c1` [Example 3, 3-(7-{6-[(3R)-1-Azabicyclo[2.2.2]oct-3-ylamino]pyridin-3-yl}-2-pyridin-4-ylpyrazolo[1,5-a]pyrimidin-3-yl)phenol], 1 nM; for `COc1cc(-c2c(-c3ccncc3)nn3c(-c4ccc(NC5CN6CCC5CC6)nc4)ccnc23)ccc1Cl` [Example 5, 5-(7-{6-[(3R)-1-Azabicyclo[2.2.2]oct-3-ylamino]pyridin-3-yl}-3-(4-chloro-3-methoxyphenyl)-2-pyridin-4-ylpyrazolo[1,5-a]pyrimidine], 6 nM.
Take `Oc1cccc(-c2c(-c3ccncc3)nn3c(NCC45CCN(CC4)CC5)ccnc23)c1` [Example 6]: the IC50 was determined as 57 nM.
As to `CCOC(=O)N1C2CCC1CC(c1ccnc3c(-c4cccc(OC)c4)c(-c4ccncc4)nn13)C2` (centres unmarked) [Example 7, Ethyl 3-(3-(3-methoxyphenyl)-2-(pyridin-4-yl)pyrazolo[1,5-a]pyrimidin-7-yl)-8-azabicyclo[3.2.1]octane-8-carboxylate], the IC50 amounted to 87 nM.
Under `CCOC(=O)N1C2CCC1CC(c1ccnc3c(-c4cccc(O)c4)c(-c4ccncc4)nn13)C2` (centres unmarked) [Example 8, Ethyl 3-(3-(3-hydroxyphenyl)-2-(pyridin-4-yl)pyrazolo[1,5-a]pyrimidin-7-yl)-8-azabicyclo[3.2.1]octane-8-carboxylate] stands 1 nM; under `Oc1cccc(-c2c(-c3ccncc3)nn3c(C4CC5CCC(C4)N5)ccnc23)c1` (centres unmarked) [Example 9, 3-(7-(8-Azabicyclo[3.2.1]octan-3-yl)-2-(pyridin-4-yl)pyrazolo[1,5-a]pyrimidin-3-yl)phenol], 4 nM.
Under `CCOC(=O)N1C2CCC1CC(c1ccnc3c(-c4ccc(Cl)c(OC)c4)c(-c4ccncc4)nn13)C2` (centres unmarked) [Example 10, Ethyl 3-(3-(4-chloro-3-methoxyphenyl)-2-(pyridin-4-yl)pyrazolo[1,5-a]pyrimidin-7-yl)-8-azabicyclo[3.2.1]octane-8-carboxylate] stands 54 nM; under `CCOC(=O)N1C2CCC1CC(c1ccnc3c(-c4ccc(Cl)c(O)c4)c(-c4ccncc4)nn13)C2` (centres unmarked) [Example 11, Ethyl 3-(3-(4-chloro-3-hydroxyphenyl)-2-(pyridin-4-yl)pyrazolo[1,5-a]pyrimidin-7-yl)-8-azabicyclo[3.2.1]octane-8-carboxylate], 2 nM.
Under `Oc1cc(-c2c(-c3ccncc3)nn3c(C4CC5CCC(C4)N5)ccnc23)ccc1Cl` (centres unmarked) [Example 12, 5-(7-(8-Azabicyclo[3.2.1]octan-3-yl)-2-(pyridin-4-yl)pyrazolo[1,5-a]pyrimidin-3-yl)-2-chlorophenol] stands 0.4 nM.
Turning to `CC(=O)N1C2CCC1CC(c1ccnc3c(-c4ccc(Cl)c(O)c4)c(-c4ccncc4)nn13)C2` (centres unmarked) [Example 13, 5-[7-(8-Acetyl-8-azabicyclo[3.2.1]oct-3-yl)-2-pyridin-4-ylpyrazolo[1,5-a]pyrimidin-3-yl]-2-chlorophenol], the IC50 was determined as 0.3 nM.
On to `CS(=O)(=O)N1C2CCC1CC(c1ccnc3c(-c4ccc(Cl)c(O)c4)c(-c4ccncc4)nn13)C2` (centres unmarked) [Example 14, 2-Chloro-5-{7-[8-(methylsulfonyl)-8-azabicyclo[3.2.1]oct-3-yl]-2-pyridin-4-ylpyrazolo[1,5-a]pyrimidin-3-yl}phenol], for which the IC50 amounted to 2 nM.
For `CC(=O)Oc1cc(-c2c(-c3ccncc3)nn3c(C4CC5CCC(C4)N5C(C)=O)ccnc23)ccc1Cl` (centres unmarked) [Example 15, 5-[7-(8-Acetyl-8-azabicyclo[3.2.1]oct-3-yl)-2-pyridin-4-ylpyrazolo[1,5-a]pyrimidin-3-yl]-2-chlorophenyl acetate] the value was 10 nM; for `COc1cc(-c2c(-c3ccncc3)nn3c(C4CC5CCC(C4)N5)ccnc23)ccc1Cl` (centres unmarked) [Example 16, 7-(8-Azabicyclo[3.2.1]oct-3-yl)-3-(4-chloro-3-methoxyphenyl)-2-pyridin-4-ylpyrazolo[1,5-a]pyrimidine], 9 nM; for `CCN1C2CCC1CC(c1ccnc3c(-c4ccc(Cl)c(OC)c4)c(-c4ccncc4)nn13)C2` (centres unmarked) [Example 17, 3-(4-Chloro-3-methoxyphenyl)-7-(8-ethyl-8-azabicyclo[3.2.1]oct-3-yl)-2-pyridin-4-ylpyrazolo[1,5-a]pyrimidine], 44 nM.
In the case of `CCN1C2CCC1CC(c1ccnc3c(-c4ccc(Cl)c(O)c4)c(-c4ccncc4)nn13)C2` (centres unmarked) [Example 18, 2-Chloro-5-[7-(8-ethyl-8-azabicyclo[3.2.1]oct-3-yl)-2-pyridin-4-ylpyrazolo[1,5-a]pyrimidin-3-yl]phenol], the IC50 was 0.6 nM.
Under `COc1cccc(-c2c(-c3ccncc3)nn3c(C4CC5CCC(C4)N5)ccnc23)c1` (centres unmarked) [Example 19, 7-(8-Azabicyclo[3.2.1]oct-3-yl)-3-(3-methoxyphenyl)-2-pyridin-4-ylpyrazolo[1,5-a]pyrimidine] stands 71 nM.
